Assays:
[1] = system: LDLR-silenced GBM cells; experiment: WST1 assay and immunoblot in LDLR-silenced (shLDLR) GBM cells; type: cell-based, human
Excerpt: FIGS. 20A and 20B show the results that downregulation of LDLR restores inhibition of autophagy and cell viability. […] The expressions of LDLR, LC3B, SQSTM1, and pro/active CTSB were detected by immunoblot analysis. GAPDH was used as a loading control. […] Data shown represent the means of quintuplicate measurements which were repeated three times. The results are presented as a percentage of control (means±SD).
shRNA sequences against LDLR were cloned into a lentiviral vector. For the production of lentivirus, the vectors were co-transfected with psPAX2 and pMD2.G in 293T cells using Lipofectamine 3,000 (Invitrogen). Then, the cultured medium was harvested. The viral supernatant was applied to GBMs and cells were selected in puromycin for 3 additional days. The shRNA sequence was as follows. shLDLR sequence: 5′-CCACTTGTAGGAGATGCAT-3′ (SEQ ID NO: 7).
The present inventors hypothesized that the enhanced expression of LDLR and uptake of exogenous cholesterol by PD may promote accumulation of cholesterol in lysosomes and contribute to PD-mediated inhibition of autophagy and cell viability in GBM cells. To this end, the expression of LDLR gene was silenced in GBM cells using lentiviral shRNA transduction.

[2] = system: A549, H358, MCF7, HT29 and HepG2 cells; experiment: Cell morphology (vacuoles) under optical microscope in various cancer cell lines; type: cell-based; conditions: PG 500 μg/mL or PD 10 μM, 24 hours
[3] = system: U87MG and U373MG cells; experiment: Immunofluorescence of SQSTM1/p62 with GFP-LC3B in GBM cells; type: cell-based, human; conditions: PD 10 μM or BafA1 (100 μM), 24 hours
Method: The cells expressing GFP-LC3B (green) were treated with DMSO, PD (10 μM), or BafA1 (100 μM) for 24 hours, followed by staining with an anti-SQSTM1 antibody (red) and DAPI (blue). The merged images (yellow) indicate co-localization between LC3 and p62. The panels on the right are higher-magnification images of the boxed regions.
Cultured cells seeded in plates with microscope coverslips were transfected with a pGFP-LC3B plasmid using Lipofectamine 3000 (Thermo Fisher Scientific) according to the manufacturer's instructions. After the transfection, the cells were fixed with 4% paraformaldehyde (PFA) in phosphate-buffered saline (PBS) at room temperature for 10 minutes. The images were examined under a laser confocal microscope (Zeiss, Oberkochen, Baden-Wurttemberg, Germany).
Cells treated with the materials were permeabilized with 0.01% Triton X-100 in PBS. After blocking the resulting cells in 2% bovine serum albumin (BSA) in PBS, they were incubated at 4° C. with a primary antibody against SQSTM1/p62 (Santa Cruz) overnight. The stained cells were incubated with an Alexa594-conjugated secondary antibody (Invitrogen, Calif., USA). The images were examined under a Zeiss laser confocal microscope.

[4] = system: U87MG and U373MG cells; experiment: Clonogenic assay, GBM cells; type: cell-based, human; conditions: PD 10 μM or 20 μM, 7 days
Method: FIGS. 19A and 19B show the results that MβCD restores PD-mediated decrease in cell viability. […] Data shown represent the means of quintuplicate measurements which were repeated three times. The results are presented as a percentage of control (means±SD).
Approximately 2×10^3 cells were seeded into each 6-well plate and then treated as described in FIG. 19. After 7 days, the cells were washed with PBS and stained with 0.5% crystal violet.
Furthermore, as can be confirmed in FIG. 19B, a colony formation assay was performed to confirm the effects of MβCD on PD-mediated GBM cell death.

[5] = system: p-ERK; experiment: Immunoblot of ERK phosphorylation, U373MG cells; type: cell-based, human; conditions: PD treatment, 24 hours
Method: FIGS. 10A to 10D show the results that PD-mediated autophagy inhibition is independent of mTOR and MAPK signaling pathways. FIGS. 10A to 10C show the results in which cells were treated with PD (0 μM, 0.5 μM, 1 μM, 5 μM, and 10 μM) for 24 hours. The immunoblot analyses for p-ULK1 (Ser757), ULK1, p-S6K (Thr389), p-AKT (Ser473), ERK2, P-ERK, p-JNK1, Beclin, and ATG7 were performed using lysates from GBMs. […] Total protein extracts were analyzed by immunoblot analyses for p-ERK, LC3B, and SQSTM1. GAPDH was used as an internal control.
Cells treated with the concentrations and materials described in FIGS. 1-3B, 7, 8, 10, 13, 16, 18, and 20 were lysed in buffer containing 20 mM Tris-HCl (pH 7.5), 150 mM NaCl, 1 mM EDTA, 1 mM Na2EDTA, 1 mM EGTA, 1% NP-40, 1% sodium deoxycholate, 1 mM Na3VO4, 1 mM MPI, 1 mM PMSF, and PI cocktails for 15 to 20 minutes on ice. Cell lysates were separated by SDS-PAGE and transferred to nitrocellulose membranes. […] The protein bands were detected with ECL western Blotting Substrate (Thermo Fisher Scientific, Waltham, Mass., USA).
Previous studies have shown that PD enhances autophagy via mTOR/MAPK pathway. […] It is known that mTORC1 activation, measured by S6K phosphorylation, inhibits autophagy initiation by phosphorylating the ULK1 (Ser 757). […]

**Q.** How did the “reduction of cell viability” value ([1]; LDLR-silenced GBM cells, PD 10 μM or 20 μM, WST1) turn out when C[C@@H]1O[C@@H](O[C@H]2[C@H](OC(=O)[C@]34CCC(C)(C)C[C@H]3C3=CC[C@@H]5[C@@]6(C)C[C@H](O)[C@H](O[C@@H]7O[C@H](CO)[C@@H](O)[C@H](O)[C@H]7O)C(CO)(CO)[C@@H]6CC[C@@]5(C)[C@]3(C)C[C@H]4O)OC[C@H](O)[C@@H]2O)[C@H](O)[C@H](O)[C@H]1O[C@@H]1OC[C@@H](O)[C@H](O[C@@H]2OC[C@](O)(CO)[C@H]2O)[C@H]1O [PD, platycodin D] was run?
**A.** less effective

**Q.** What about the “LC3-II, p62 and cathepsin B response to PD” value ([1]; knockdown of LDLR, PD 5 μM or 10 μM, 24 hours, immunoblot) of the same compound?
**A.** prevented the upregulation of LC3-II and p62 as well as the inactivation of cathpsin B

**Q.** And the vacuoles [2]?
**A.** visible vacuoles were observed

**Q.** What about the “p62 staining and colocalization with GFP-LC3B puncta” value [3] of the same compound?
**A.** increase

**Q.** What about the colony-forming ability [4] of the same compound?
**A.** abolished

**Q.** And the “phosphorylation levels of ERK” value [5]?
**A.** markedly increased

— US11351218B2, “Composition for preventing or treating glioblastoma comprising Platycodon grandiflorum A. De Candolle, Scutellaria baicalensis, Phellodendron amurense Ruprecht or Rubus coreanus” (University-Industry Cooperation Group of Kyung Hee …, priority 2019, dated 2022)
